The compounds below were run against herpes simplex virus type 2 (HSV-2) thymidine kinase (Human herpesvirus 2, UniProt P04407) (assay: inhibition of herpes simplex virus type 2 (HSV-2) thymidine kinase in vitro). Conditions: not given.
Format: biochemical
Procedure: In this test, the assay mixture contains […] Tris-HCl, pH 8, 5 mM magnesium chloride, 5 mM ATP, 0.3 μM ^3 H-thymidine (50 Ci/mmol), suitably diluted thymidine kinase extract and various concentrations of a compound of formula I or a tautomer thereof in a total volume of 100 μl. Assays are incubated at 37° C. for 30 minutes and the reaction is terminated by immersion in a boiling water bath for 2 minutes. 85 μl aliquots from each assay are then dried on to DEAE-cellulose paper discs and the unphosphorylated ^3 H-thymidine is removed by washing in 4 mM ammonium formate. The radioactivity remaining bound to the discs is then measured by scintillation spectrophotometry. The degree of inhibition at each concentration of compound of formula I or tautomer thereof is expressed as a percentage of the control reaction (100%) after substracting a measured blank value which represents the amount of radioactivity bound to the disc from a reaction containing heat inactivated enzymes. the IC50 value, namely, the concentration of compound of formula I or tautomer thereof which inhibits enzyme activity by 50%, is then calculated. The results obtained with representative compounds of formula I are complied in the following Table: […]

Chain of herpes simplex virus type 2 (HSV-2) thymidine kinase (P04407 whole entry): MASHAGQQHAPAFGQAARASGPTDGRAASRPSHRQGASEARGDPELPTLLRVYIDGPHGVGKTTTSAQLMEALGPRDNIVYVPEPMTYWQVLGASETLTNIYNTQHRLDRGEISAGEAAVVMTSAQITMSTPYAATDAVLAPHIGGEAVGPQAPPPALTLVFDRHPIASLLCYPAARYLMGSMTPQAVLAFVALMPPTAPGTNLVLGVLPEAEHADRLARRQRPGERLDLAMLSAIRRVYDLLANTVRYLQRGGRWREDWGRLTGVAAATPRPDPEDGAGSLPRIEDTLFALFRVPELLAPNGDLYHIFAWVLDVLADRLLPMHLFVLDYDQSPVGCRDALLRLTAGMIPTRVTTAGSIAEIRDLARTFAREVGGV

SMILES | IC50 [nM]
CCc1cn([C@H]2C[C@H](O)[C@@H](CNC(=O)Cc3c(Cl)cccc3Cl)O2)c(=O)[nH]c1=O [Compound B, 5'-[2-(2,6-dichlorophenyl)acetamido]-2',5'-dideoxy-5-ethyluridine] | 3

Same assay, conditions: HSV-2 thymidine kinase extract; 0.3 μM 3H-thymidine, 5 mM ATP, pH 8, 37° C., 30 minutes; read-out: IC50 (concentration which inhibits enzyme activity by 50%)

SMILES | IC50 [nM]
CCc1cn([C@@H]2O[C@H](CNC(=O)C(C)Oc3ccc(Cl)cc3Cl)[C@@H](O)[C@@H]2F)c(=O)[nH]c1=O (mixture of isomers) [Compound F, 1-[5-[2-(RS)-(2,4-dichlorophenoxy)propionamido]-2,5-dideoxy-2-fluoro-β-D-arabinofuranosyl]-5-ethyluracil] | 4
CCc1cn([C@H]2C[C@H](O)[C@@H](CNC(=O)C(C)Oc3ccccc3-c3ccccc3)O2)c(=O)[nH]c1=O (mixture of isomers) [Compound E, 2',5'-dideoxy-5-ethyl-5'-[2(RS)-(2-phenylphenoxy)propionamido]uridine] | 5
CCc1cn([C@H]2C[C@H](O)[C@@H](CNC(=O)Cc3ccc(-c4ccccc4)cc3)O2)c(=O)[nH]c1=O [Compound D, 5'-[2-(4-biphenylyl)acetamido]-2',5'-dideoxy-5-ethyluridine] | 70
CCc1cn([C@H]2C[C@H](O)[C@@H](CNC(=O)Cc3ccccc3Br)O2)c(=O)[nH]c1=O [Compound A, 5'-[2-(2-bromophenyl)acetamido]-2',5'-dideoxy-5-ethyluridine] | 20
CCc1cn([C@H]2C[C@H](O)[C@@H](CNC(=O)C(C)Oc3ccc(Cl)cc3Cl)O2)c(=O)[nH]c1=O (mixture of isomers) [Compound C, 5'-[2(RS)-(2,4-dichlorophenoxy)propionamido]-2',5'-dideoxy-5-ethyluridine] | 3.7
CCc1cn([C@H]2C[C@H](O)[C@@H](CNC(=O)C(C)Oc3cc(Cl)c(Cl)cc3Cl)O2)c(=O)[nH]c1=O (mixture of isomers) [Compound G, 5'-[2(RS)-(2,4,5-trichlorophenoxy)propionamido]-2',5'-dideoxy-5-ethyluridine] | 1.3

Other lines, results leading:

IC50 [nM] | SMILES
3.5 | CCCc1cn([C@H]2C[C@H](O)[C@@H](CNC(=O)C(C)Oc3ccc(Cl)cc3Cl)O2)c(=O)[nH]c1=O (mixture of isomers) [Compound K, 5'-[2(RS)-(2,4-dichlorophenoxy)propionamido]-2',5'-dideoxy-5-propyluridine]
2.7 | CCc1cn([C@H]2C[C@H](O)[C@@H](CNC(=O)C(C)Oc3ccc(Cl)cc3[N+](=O)[O-])O2)c(=O)[nH]c1=O (mixture of isomers) [Compound H, 5'-[2(RS)-(4-chloro-2-nitrophenoxy)propionamido]-2',5'-dideoxy-5-ethyluridine]
4.7 | CCc1cn([C@H]2C[C@H](O)[C@@H](CNC(=O)C(Oc3ccc(Cl)cc3Cl)c3ccccc3)O2)c(=O)[nH]c1=O (mixture of isomers) [Compound I, 5'-[2(RS)-(2,4-dichlorophenoxy)-2-phenylacetamido]-2',5'-dideoxy-5-ethyluridine]
1.2 | CCc1cn([C@H]2C[C@H](O)[C@@H](CNC(=O)C(C)Oc3cc(OC)c(Cl)cc3Cl)O2)c(=O)[nH]c1=O (mixture of isomers) [Compound J, 5'-[2(RS)-(2,4-dichloro-5-methoxyphenoxy)propionamido]-2',5'-dideoxy-5-ethyluridine]

Reference: patent US4851519A, “Pyrimidine derivatives” (Hoffmann-La Roche Inc., priority 1986, dated 1989)
